Experimental data taken from patent publication US5599953A, “C-glycoside analogues of N-(4-hydroxyphenyl)retinamide-O-glucuronide” (The Ohio State Research Foundation, priority 1995, dated 1997).
Entries after “also recorded” stand apart in the source; their conditions may differ. Where two headings read alike, the source gives them in different places.

T1: β-glucuronidase (Homo sapiens, UniProt P08236)
T1 sequence (P08236 23-651): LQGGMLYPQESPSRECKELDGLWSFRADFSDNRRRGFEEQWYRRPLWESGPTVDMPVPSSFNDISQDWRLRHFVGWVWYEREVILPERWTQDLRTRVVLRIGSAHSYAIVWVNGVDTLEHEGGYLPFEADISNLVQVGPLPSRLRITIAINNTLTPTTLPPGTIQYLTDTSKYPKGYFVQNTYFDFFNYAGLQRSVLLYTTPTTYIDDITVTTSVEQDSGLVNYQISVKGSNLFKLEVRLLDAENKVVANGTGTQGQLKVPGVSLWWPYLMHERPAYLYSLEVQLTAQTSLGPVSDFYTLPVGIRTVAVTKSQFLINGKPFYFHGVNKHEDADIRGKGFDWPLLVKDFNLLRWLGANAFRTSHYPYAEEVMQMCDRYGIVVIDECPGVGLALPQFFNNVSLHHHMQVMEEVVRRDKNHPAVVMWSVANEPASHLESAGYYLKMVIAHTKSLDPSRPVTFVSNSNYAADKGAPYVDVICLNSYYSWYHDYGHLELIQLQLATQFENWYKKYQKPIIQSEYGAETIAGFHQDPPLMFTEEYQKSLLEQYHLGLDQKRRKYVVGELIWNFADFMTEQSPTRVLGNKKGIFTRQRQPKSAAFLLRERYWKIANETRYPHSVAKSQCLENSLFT

T2: human retinoic acid receptor γ (Homo sapiens, UniProt P13631)
T2 construct: made in house
T2 sequence (P13631 1-454): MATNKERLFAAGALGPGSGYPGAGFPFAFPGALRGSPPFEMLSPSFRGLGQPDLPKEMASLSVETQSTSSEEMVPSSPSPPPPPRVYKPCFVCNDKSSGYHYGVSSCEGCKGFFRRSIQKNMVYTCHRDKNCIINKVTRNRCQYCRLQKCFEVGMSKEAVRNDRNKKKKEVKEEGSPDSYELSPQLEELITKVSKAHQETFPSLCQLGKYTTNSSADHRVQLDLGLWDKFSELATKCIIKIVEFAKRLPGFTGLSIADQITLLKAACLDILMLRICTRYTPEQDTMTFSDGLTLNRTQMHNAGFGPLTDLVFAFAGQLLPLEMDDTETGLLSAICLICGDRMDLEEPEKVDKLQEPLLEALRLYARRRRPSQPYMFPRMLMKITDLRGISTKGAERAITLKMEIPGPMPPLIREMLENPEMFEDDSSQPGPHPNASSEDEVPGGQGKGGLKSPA

T3: mRARα (Mus musculus, UniProt P11416)
T3 construct: made in house; host or cells: Spodoptera frugiperda insect cells, baculovirus (whole cell extract)
T3 sequence (P11416 1-462): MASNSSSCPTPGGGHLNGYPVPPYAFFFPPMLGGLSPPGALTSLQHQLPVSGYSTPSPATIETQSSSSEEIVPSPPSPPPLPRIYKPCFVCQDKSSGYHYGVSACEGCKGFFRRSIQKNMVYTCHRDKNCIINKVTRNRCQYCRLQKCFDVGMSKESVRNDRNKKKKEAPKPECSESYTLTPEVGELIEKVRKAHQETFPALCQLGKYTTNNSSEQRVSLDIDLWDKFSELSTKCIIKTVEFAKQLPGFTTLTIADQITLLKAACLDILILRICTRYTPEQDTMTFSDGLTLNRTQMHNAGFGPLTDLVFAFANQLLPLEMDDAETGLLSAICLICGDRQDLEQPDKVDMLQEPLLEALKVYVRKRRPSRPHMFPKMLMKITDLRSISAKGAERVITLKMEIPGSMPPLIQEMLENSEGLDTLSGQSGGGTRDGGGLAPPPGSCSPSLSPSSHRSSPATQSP

T4: mRARβ (Mus musculus, UniProt P22605)
T4 construct: made in house; host or cells: Spodoptera frugiperda insect cells, baculovirus (whole cell extract)
T4 sequence (P22605 1-448 isoform P22605-3): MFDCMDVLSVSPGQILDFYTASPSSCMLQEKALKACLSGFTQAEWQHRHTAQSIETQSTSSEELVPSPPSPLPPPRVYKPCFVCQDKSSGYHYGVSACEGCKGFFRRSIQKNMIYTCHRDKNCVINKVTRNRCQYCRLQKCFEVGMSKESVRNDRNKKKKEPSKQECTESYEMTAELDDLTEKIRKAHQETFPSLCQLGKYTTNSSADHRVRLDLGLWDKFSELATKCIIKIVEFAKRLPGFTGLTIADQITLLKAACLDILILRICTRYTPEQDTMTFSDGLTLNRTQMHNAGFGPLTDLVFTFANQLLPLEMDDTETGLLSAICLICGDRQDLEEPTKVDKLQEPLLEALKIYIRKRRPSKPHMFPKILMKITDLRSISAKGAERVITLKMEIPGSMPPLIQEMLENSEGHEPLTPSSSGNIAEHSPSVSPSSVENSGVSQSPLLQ

T5: mRARγ (Mus musculus, UniProt P18911)
T5 construct: made in house; host or cells: Spodoptera frugiperda insect cells, baculovirus (whole cell extract)
T5 sequence (P18911 1-458): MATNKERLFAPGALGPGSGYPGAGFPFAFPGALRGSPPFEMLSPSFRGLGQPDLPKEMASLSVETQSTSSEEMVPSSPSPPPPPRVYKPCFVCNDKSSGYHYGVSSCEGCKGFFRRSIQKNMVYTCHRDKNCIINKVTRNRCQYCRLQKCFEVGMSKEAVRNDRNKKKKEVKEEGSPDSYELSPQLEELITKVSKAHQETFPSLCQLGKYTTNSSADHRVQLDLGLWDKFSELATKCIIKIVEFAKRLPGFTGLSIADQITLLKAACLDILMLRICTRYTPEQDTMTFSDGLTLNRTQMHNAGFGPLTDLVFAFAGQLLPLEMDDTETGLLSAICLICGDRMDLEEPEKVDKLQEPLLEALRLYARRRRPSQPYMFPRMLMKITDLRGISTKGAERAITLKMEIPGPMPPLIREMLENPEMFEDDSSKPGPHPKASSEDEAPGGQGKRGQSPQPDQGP


Key:
[1] = Acid stability, 0.1N HCl at 37° C. for two hours; assay type: physicochemical
Experimental: Similarly, 1-(D-glucopyranosyluronosyl) retinamide and RAG were treated with 0.1N HCl at 37° C. for two hours.

β-glucuronidase [2] = target: T1, β-glucuronidase; experiment: Stability toward β-glucuronidase mediated hydrolysis; assay type: in vitro ADME; settings: within twenty minutes
Experimental: Similarly 1-(D-glucopyranosyluronosyl) retinamide and RAG were evaluated for their stability toward β-glucuronidase medicated hydrolysis under the same conditions as described above.

[3] = target: T2, human retinoic acid receptor γ; experiment: Competition binding / retinoic acid binding, human retinoic acid receptor γ/BCV (FIG. 1); settings: 1.3 nM [3H]-retinoic acid
[4] = tested on: DMBA-Induced Rat Mammary Tumors; experiment: Effect on progression of DMBA-induced rat mammary tumors; assay type: in vivo; settings: 1 mmol/Kg in diet
Text: The control rats received DMBA intubation only and AIN-76A rat chow.

[5] = Acid stability, 0.1N methanolic HCl at 37° C. for 2 hours; assay type: physicochemical
Experimental: To determine the stability of the C-glucopyranosiduronate linkage towards acidic conditions, samples of 4-HPR-O-glucuronide, 4-(retinamido)phenyl-C-glucuronide and 4-(retinamido)benzyl-C-glucuronide were treated with 0.1N methanolic HCl at 37° C. for 2 hours.

β-glucuronidase [6] = target: T1, β-glucuronidase; experiment: Inhibition of β-glucuronidase mediated hydrolysis of 4-HPR-O-glucuronide; assay type: biochemical; settings: for IC50: 10% methanol as co-solvent, 4-HPR-O-glucuronide below 184.5 μM
Text: (§1) Chem. Soc., (1954), 76, 4872-4877.

MCF-7 cells = experiment: Growth inhibition of MCF-7 human mammary tumor cells; assay type: cell-based; settings: for IC50: Homo sapiens, MCF7, 168 h, 7 days, read-out: ED50 for growth inhibition of MCF-7 cells; for growth inhibition of MCF-7 cells, in words: comparison of drugs
Experimental: The antiproliferative activity of the drugs in MCF-7 human mammary tumor cell culture models were determined.
The MCF-7 cells were obtained originally from the Michigan Cancer Foundation. The cells were routinely grown as monolayers in T-25 plastic tissue culture flasks from Falcon, in Oxnard, Calif. containing 5.0 mL of B-10 medium consisting of Minimum Essential Medium (MEM, Earle's Base) supplemented with 1.0 mM MEM non-essential amino acid, 2.0 mM 1-glutamine,10% fetal bovine serum (FBS), and antibiotics. Culture conditions included a humidified atmosphere of 5% CO2 at 37° C. One-half of the medium was replenished twice a week. Cells were harvested by trypsinization upon confluency. All variables were evaluated in triplicate.
For the growth inhibition assay the MCF-7 cells were plated in 24-well plates at a density of 1.5×10^4 cells/cm^2. […] Control cultures were treated with an equivalent volume of absolute ethanol. On day 7 the cells were harvested by trypsinization and viability was assessed by trypan blue exclusion according to Ueda, H. et al. Cancer 1980, 46, 2203-2209. Total cell counts were obtained using a hemocytometer as well as a the Coulter Counter.

mRARα = target: T3, mRARα; experiment: Drug competition with (3H)retinoic acid binding, mRARα; settings: read-out: percent reduction of binding of the (3H)retinoic acid, mRARα; 1 μM drug; 5 nM [3H]RA
mRARβ = target: T4, mRARβ; experiment: Drug competition with (3H)retinoic acid binding, mRARβ; settings: read-out: percent reduction of binding of the (3H)retinoic acid, mRARβ; 1 μM drug; 5 nM [3H]RA
mRARγ = target: T5, mRARγ; experiment: Drug competition with (3H)retinoic acid binding, mRARγ; settings: read-out: percent reduction of binding of the (3H)retinoic acid, mRARγ; 1 μM drug; 5 nM [3H]RA
[7] = tested on: retinoic acid receptors α, β and γ; experiment: Competition with retinoic acid for retinoic acid receptors (RAR α, β, γ), overall; assay type: binding; settings: 1 μM drug
[8] = substrate: CC1=C(/C=C/C(C)=C/C=C/C(C)=C/C(=O)Nc2ccc(O[C@@H]3O[C@H](C(=O)O)[C@@H](O)[C@H](O)[C@H]3O)cc2)C(C)(C)CCC1; experiment: Inhibition of β-glucuronidase mediated hydrolysis of 4-HPR-O-glucuronide; assay type: biochemical; settings: other: 4-HPR-O-glucuronide as substrate
Text: as §1

Molecule	hydrolysis by β-glucuronidase within twenty minutes (β-glucuronidase [2])	acid hydrolysis (stability) [5]	IC50 (β-glucuronidase [6]) [µM]	inhibition at 1 µM (mRARα) [%]	inhibition at 1 µM (mRARβ) [%]	inhibition at 1 µM (mRARγ) [%]	inhibition of β-glucuronidase mediated hydrolysis, in words (β-glucuronidase [6])	growth inhibition of MCF-7 cells, in words (MCF-7 cells)	competition with retinoic acid for the receptors, in words [7]	further results
CC1=C(/C=C/C(C)=C/C=C/C(C)=C/C(=O)O[C@@H]2O[C@H](C(=O)O)[C@@H](O)[C@H](O)[C@H]2O)C(C)(C)CCC1 [RAG, retinoyl β-glucuronide, reference compound]	completely hydrolyzed	–	–	–	–	–	–	–	–	degraded at 2 h ([1]; HPLC): ~50%
β-glucuronidase (Homo sapiens) (protein) LQGGMLYPQESPSRECKELDGLWSFRADFSDNRRRGFEEQWYRRPLWESGPTVDMPVPSSFNDISQDWRLRHFVGWVWYEREVILPERWTQDLRTRVVLRIGSAHSYAIVWVNGVDTLEHEGGYLPFEADISNLVQVGPLPSRLRITIAINNTLTPTTLPPGTIQYLTDTSKYPKGYFVQNTYFDFFNYAGLQRSVLLYTTPTTYIDDITVTTSVEQDSGLVNYQISVKGSNLFKLEVRLLDAENKVVANGTGTQGQLKVPGVSLWWPYLMHERPAYLYSLEVQLTAQTSLGPVSDFYTLPVGIRTVAVTKSQFLINGKPFYFHGVNKHEDADIRGKGFDWPLLVKDFNLLRWLGANAFRTSHYPYAEEVMQMCDRYGIVVIDECPGVGLALPQFFNNVSLHHHMQVMEEVVRRDKNHPAVVMWSVANEPASHLESAGYYLKMVIAHTKSLDPSRPVTFVSNSNYAADKGAPYVDVICLNSYYSWYHDYGHLELIQLQLATQFENWYKKYQKPIIQSEYGAETIAGFHQDPPLMFTEEYQKSLLEQYHLGLDQKRRKYVVGELIWNFADFMTEQSPTRVLGNKKGIFTRQRQPKSAAFLLRERYWKIANETRYPHSVAKSQCLENSLFT	–	–	–	–	–	–	–	–	–	Km [8]: 184.5 µM

Second part, led by results:

hydrolysis by β-glucuronidase within twenty minutes (β-glucuronidase [2])	acid hydrolysis (stability) [5]	IC50 (β-glucuronidase [6]) [µM]	inhibition at 1 µM (mRARα) [%]	inhibition at 1 µM (mRARβ) [%]	inhibition at 1 µM (mRARγ) [%]	Molecule	inhibition of β-glucuronidase mediated hydrolysis, in words (β-glucuronidase [6])	growth inhibition of MCF-7 cells, in words (MCF-7 cells)	competition with retinoic acid for the receptors, in words [7]	further results
remained intact	–	–	–	–	–	CC1=C(/C=C/C(C)=C/C=C/C(C)=C/C(=O)NC2O[C@H](C(=O)O)[C@@H](O)[C@H](O)[C@H]2O)C(C)(C)CCC1 (stereo partly drawn) [1-(D-glucopyranosyluronosyl) retinamide]	–	–	–	acid stability [1]: remained intact; Ki [3]: 0.28 µM; effect on DMBA-induced mammary tumor development, in words [4]: significantly prolonged the latency period of mammary cancer; also recorded: tumor induction was markedly delayed and reduced; also recorded: caused the largest reduction in multiple mammary tumors; also recorded: greater mammary tumor chemopreventive effect than does retinoic acid; also recorded: inhibit DMBA induced mammary tumor development; tumor latency ([4]; 15 mg DMBA oral): 64 days; tumor incidents ([4]; 110 days post intubation): 50%; tumor number/rat ([4]; 110 days post intubation): 0.83 tumors per rat
–	remained essentially intact	236	67	82	78	CC1=C(/C=C/C(C)=C/C=C/C(C)=C/C(=O)Nc2ccc(C[C@@H]3O[C@H](C(=O)O)[C@@H](O)[C@H](O)[C@H]3O)cc2)C(C)(C)CCC1 [4-(retinamido)benzyl-C-glucuronide]	slightly more effective than the 4-(retinamido)phenyl-C-glucuronide	exhibit the best growth inhibition of the cells	significantly compete with retinoic acid for the receptors	IC50 (MCF-7 cells; Assay 1): 6.5 µM
–	remained essentially intact	267	48	47	40	CC1=C(/C=C/C(C)=C/C=C/C(C)=C/C(=O)Nc2ccc([C@@H]3O[C@H](C(=O)O)[C@@H](O)[C@H](O)[C@H]3O)cc2)C(C)(C)CCC1 [4-(retinamido)phenyl-C-glucuronide]	act as inhibitors of β-glucuronidase mediated hydrolysis	potency consistent with its glucoside analogue	significantly compete with retinoic acid for the receptors	IC50 (MCF-7 cells; Assay 3): 50 µM
